One assay relates to HIV-1 protease. The conditions noted are these: experimental binding free energy; ligand named by PDB code of its complex; cited from earlier work.
The target in assay [1] is T1, SARS-CoV-2 M^pro (Severe acute respiratory syndrome coronavirus 2, UniProt P0DTD1). Briefly: biochemical.
Assay [2] concerns the target T1, SARS-CoV-2 M^pro.
Assay [3] concerns the target T1, SARS-CoV-2 M^pro. The conditions noted are these: for UEMM-GBSA: unsigned error |ΔGMM-GBSA − ΔGexp|; for UEMM-PBSA: unsigned error |ΔGMM-PBSA − ΔGexp|.
The mark [4] stands for this setting: calculated from corresponding Ki values.
The mark [5] stands for this setting: converted from IC50 based on the assumption of the competitive inhibition without covalent binding, read-out: Ki.
[6] abbreviates: substrate concentration 20 µM, 500 nM enzyme, ∼50 values estimated from single-concentration assay, read-out: IC50.

Molecules are shown by their SMILES. Counter-ions that a name gives are not always drawn. Like-named read-outs stand apart in the source and are kept apart here.

`O=S1(=O)N(Cc2ccccc2)[C@H](COc2ccccc2)[C@H](O)[C@@H](O)[C@@H](COc2ccccc2)N1Cc1ccccc1` [1AJV]: the “∆Gexp” value with HIV-1 protease is -10.5 kcal/mol.

For `O=C(NCc1ccccc1)[C@H](OCc1ccccc1)[C@H](O)[C@@H](O)[C@@H](OCc1ccccc1)C(=O)N[C@H]1c2ccccc2C[C@H]1O` [1D4H], the “∆Gexp” value in the assay on HIV-1 protease is -13.6 kcal/mol.

With `CCOc1nc2cccc(C(=O)OC(C)OC(=O)OC3CCCCC3)c2n1Cc1ccc(-c2ccccc2-c2nnn[nH]2)cc1` (centres unmarked) [Candesartan cilexetil, candesartan cilexetil], the ΔGexp at SARS-CoV-2 M^pro [1] (setting [4]) is on record as -9.2 kcal/mol. In addition, on SARS-CoV-2 M^pro [1] (setting [5]), the Ki amounted to 0.18 ± 0.02 µM. In addition, the IC50 at SARS-CoV-2 M^pro [1] (setting [6]) was 2.8 ± 0.3 µM. Also, the UEFEP-ABFE on SARS-CoV-2 M^pro [2] was 0.6 kcal/mol. Moreover, at SARS-CoV-2 M^pro [3], the UEMM-GBSA is listed as 29.1 kcal/mol and the UEMM-PBSA is 26.9 kcal/mol.

`CCOc1nc2cccc(C(=O)O)c2n1Cc1ccc(-c2ccccc2-c2nnn[nH]2)cc1` [Candesartan, candesartan] yielded a Ki on SARS-CoV-2 M^pro [1] of 0.62 µM.

`CN/C(=N/CCSCc1nc[nH]c1C)NC#N` [Cimetidine]: on SARS-CoV-2 M^pro [1], the IC50 was roughly 50 µM, the Ki is roughly 3.27 µM and the ΔGexp is recorded as -7.5 kcal/mol. At SARS-CoV-2 M^pro [2], this compound came in with a UEFEP-ABFE of 1.4 kcal/mol. Further, at SARS-CoV-2 M^pro [3], the UEMM-GBSA was 20.3 kcal/mol and the UEMM-PBSA was 18.7 kcal/mol.

As for `CCN(CC)C(=S)SSC(=S)N(CC)CC` [Disulfiram, disulfiram], the ΔGexp on SARS-CoV-2 M^pro [1] (setting [4]) was -8.8 kcal/mol. Also, the values for the UEFEP-ABFE on SARS-CoV-2 M^pro [2] and at SARS-CoV-2 M^pro [2] (listed as disulfiram) were 2.2 kcal/mol and “about 2.2 kcal/mol”, respectively.

In the case of `CC(C)Nc1nc2cc(Cl)c(Cl)cc2n1[C@H]1O[C@@H](CO)[C@H](O)[C@@H]1O` [Maribavir], the UEFEP-ABFE on SARS-CoV-2 M^pro [2] (unsigned error |ΔGFEP-ABFE − ΔGexp|) was 2.2 kcal/mol. For the same compound, the UEFEP-ABFE entry at SARS-CoV-2 M^pro [2] (unsigned error |ΔGFEP-ABFE − ΔGexp|, listed as maribavir) is given as “about 2.2 kcal/mol”. In addition, on SARS-CoV-2 M^pro [3], the UEMM-GBSA turned out to be 25.7 kcal/mol and the UEMM-PBSA is 19.5 kcal/mol.

Consider `COc1ccc2[nH]c([S+]([O-])Cc3ncc(C)c(OC)c3C)nc2c1` (centres unmarked) [Omeprazole], for which, on SARS-CoV-2 M^pro [1], the IC50 amounted to 21 ± 1 µM and the Ki stood at 1.37 ± 0.06 µM. On SARS-CoV-2 M^pro [1] (setting [4]), the ΔGexp is -8.0 kcal/mol. The compound also registered a UEFEP-ABFE at SARS-CoV-2 M^pro [2] of 1.6 kcal/mol. On SARS-CoV-2 M^pro [3], this compound displayed a UEMM-GBSA of 16.4 kcal/mol and a UEMM-PBSA of 14.3 kcal/mol.

For the compound `CN(C)[C@@H]1C(O)=C(C(N)=O)C(=O)[C@@]2(O)C(O)=C3C(=O)c4c(O)cccc4[C@@](C)(O)[C@H]3[C@H](O)[C@@H]12` [Oxytetracycline], the ΔGexp on SARS-CoV-2 M^pro [1] (setting [4]) is given as -8.2 kcal/mol. In addition, at SARS-CoV-2 M^pro [1] (setting [5]), the Ki was determined as 0.99 ± 0.06 µM. For the same compound, the IC50 on SARS-CoV-2 M^pro [1] (setting [6]) was 15.2 ± 0.9 µM. This compound also returned a UEFEP-ABFE on SARS-CoV-2 M^pro [2] of 0.6 kcal/mol. Moreover, on SARS-CoV-2 M^pro [3], the UEMM-GBSA amounted to 6.4 kcal/mol and the UEMM-PBSA is reported as 1.8 kcal/mol.

`CC(=O)OCC(=O)NCCCOc1cccc(CN2CCCCC2)c1` [Roxatidine acetate hydrochloride]: at SARS-CoV-2 M^pro [1] (setting [4]), the ΔGexp is on record as -8.0 kcal/mol. For the same compound, at SARS-CoV-2 M^pro [1] (setting [5]), the Ki was 1.33 ± 0.02 µM. Also, the IC50 at SARS-CoV-2 M^pro [1] (setting [6]) was 20.3 ± 0.4 µM. The compound further showed a UEFEP-ABFE at SARS-CoV-2 M^pro [2] of 0.8 kcal/mol. On SARS-CoV-2 M^pro [3], this compound returned a UEMM-GBSA of 22.5 kcal/mol and a UEMM-PBSA of 21.2 kcal/mol.

`CC(=O)NS(=O)(=O)c1ccc(N)cc1` [Sulfacetamide]: at SARS-CoV-2 M^pro [1], the IC50 is roughly 50 µM and the Ki is roughly 3.27 µM. At SARS-CoV-2 M^pro [1] (setting [4]), the ΔGexp is recorded as -7.5 kcal/mol. The compound further had a UEFEP-ABFE on SARS-CoV-2 M^pro [2] of 0.5 kcal/mol. Further, at SARS-CoV-2 M^pro [3], the UEMM-GBSA was 6.4 kcal/mol and the UEMM-PBSA was 7.3 kcal/mol.

For the compound `CC(C)[C@H](N)C(=O)OCCOCn1cnc2c(=O)[nH]c(N)nc21` [Valacyclovir hydrochloride], the ΔGexp on SARS-CoV-2 M^pro [1] (setting [4]) is on record as -8.1 kcal/mol. Moreover, the Ki on SARS-CoV-2 M^pro [1] (setting [5]) was determined as 1.09 ± 0.06 µM. Further, the IC50 on SARS-CoV-2 M^pro [1] (setting [6]) is 16.7 ± 0.9 µM. The UEFEP-ABFE on SARS-CoV-2 M^pro [2] was found to be 1.9 kcal/mol. At SARS-CoV-2 M^pro [3], this compound showed a UEMM-GBSA of 10.2 kcal/mol and a UEMM-PBSA of 12.7 kcal/mol.

Consider `CC(C)[C@H](N)C(=O)OCC(CO)OCn1cnc2c(=O)nc(N)[nH]c21` (some centres unmarked) [Valganciclovir Hydrochloride], for which, on SARS-CoV-2 M^pro [1] (setting [5]), the Ki was found to be 1.09 ± 0.06 µM.

The values are drawn from PMC7959488, “Identify potent SARS-CoV-2 main protease inhibitors via accelerated free energy perturbation-based virtual screening of existing drugs” (Proceedings of the National Academy of Sciences of the …, 2020).
